{
  "source": "patent US12433876B2",
  "about": "“Septin inhibitors for treatment of cancers” (UNIVERSITY OF ROCHESTER, priority 2019, dated 2025)",
  "key": {"[1]": {"system": "JIMT-1 breast cancer cells", "test": "RNA-Seq whole transcriptome analysis, JIMT-1", "format": "cell-based, human", "conditions": "10 nM Afatinib, 1 μM UR214-9"}, "septin-9": {"system": "septin-9", "test": "Confocal analysis of septin-9 filament structure", "format": "cell-based"}, "HER2+ PANC-1 xenograft": {"system": "HER2+ PANC-1 xenograft", "test": "PANC-1 xenograft tumor growth", "format": "in vivo, NSG mice", "conditions": "25 mg/kg IP, 52 days; p<0.0001", "source_text": "Cell Cycle Protein Expression. Cell Cycle Antibody Array (FullMoon BioSystems Inc, catalogue number: ACC:058), a high throughput ELISA based antibody array, designed for qualitative/semi-quantitative protein expression profiling was employed to investigate the protein changes after drug treatment. PANC-1 cells were lysed in buffer containing protease and phosphatase inhibitors (Cell Signaling, catalog number: 9803S). Total protein content was quantified by Bradford assay and equal amounts of proteins were analyzed in duplicate with arrays containing 4 to 6 spots for each of 60 probes (ACC058, Cell Cycle Antibody Array; Full Moon Biosystems, Sunnyvale, Calif.), according to manufacturer's instructions. After background correction, mean signal intensities were measured using FullMoon Inc's imaging services. Protein expressions in both the naïve and 328 treatment group was normalized to GAPDH signals. Confocal Analysis of Septin Disarrangement. To determine the impact of UR214-9 treatment on Septin-2 structure in cells, PANC-1 or JIMT-1 cells were seeded on glass slides and allowed to adhere overnight. The media was replaced with complete DMEM media supplemented with DMSO or UR214-9 (1 μM and 70 nM) and cells were incubated for 48 hours. […] The cells were stained with fluorescence linked secondary antibody for 1 hr under dark. […] Five cells were outlined and analyzed per field. […]"}},
  "data": [
    {"smiles": "O=C(Nc1cc(Cl)nc(Cl)c1)Nc1cccc(SC(F)(F)F)c1F", "note": "[UR214-9]", "values": [
      {"measurement": "dysregulated genes, down", "setting": "[1]", "result": 4},
      {"measurement": "dysregulated genes, up", "setting": "[1]", "result": 7},
      {"measurement": "septin-9 filament structures", "setting": "septin-9; PANC-1 and JIMT-1 cells", "result": "clear disarrangement in septin-9 filament structures"},
      {"measurement": "septin-9 structure", "setting": "septin-9; SKOV-3, 1 μM, 48 hours", "result": "reorganization of septin-9"},
      {"measurement": "xenograft tumor growth", "setting": "HER2+ PANC-1 xenograft", "result": "significantly delayed growth"}
    ]}
  ]
}
